Experiment [1] concerns the target T1, fusion protein containing GAL4-DNA-binding domain and ERR full-length (Homo sapiens, UniProt P11474).
T1 construct: expressed in transfected cells; host or cells: 293T cells
T1 sequence (P11474 1-423): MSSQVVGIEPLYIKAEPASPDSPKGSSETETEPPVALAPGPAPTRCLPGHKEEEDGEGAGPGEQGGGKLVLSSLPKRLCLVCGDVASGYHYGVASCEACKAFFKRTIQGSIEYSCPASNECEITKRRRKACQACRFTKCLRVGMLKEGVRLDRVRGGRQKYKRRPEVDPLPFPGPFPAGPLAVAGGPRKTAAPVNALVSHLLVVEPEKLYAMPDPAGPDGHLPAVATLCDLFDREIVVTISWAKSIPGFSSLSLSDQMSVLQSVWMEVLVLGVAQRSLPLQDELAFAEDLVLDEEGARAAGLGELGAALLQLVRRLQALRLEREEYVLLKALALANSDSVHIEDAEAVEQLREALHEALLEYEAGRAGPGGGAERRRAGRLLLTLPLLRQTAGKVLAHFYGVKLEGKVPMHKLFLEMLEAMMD
As to the kind of experiment: Reporter assay system using 293T cells (GAL4-ERR luciferase, inverse agonist activity). Type of experiment: cell-based. To be noted: HEK-293T; compound final concentration 3 μM, 1 day; luciferase activity in 293T cells; no compound = 0%, 10 μM XCT-790 = 100%; read-out: inhibition rate (%) at 3 μM. The protocol: Compound Evaluation in Reporter Assay System Using 293T Cells
293T cells were seeded in a 150 cm^2 flask by 6,000,000 cells, and cultured in a medium (DMEM medium containing 10% inactivated Fetal Bovine Serum sterile filtered (FBS), 50 μg/ml Gentamicin, 10 mM HEPES buffer (pH 7.4)) at 37° C. in the presence of 5% CO2 for 1 day.
Then, vector DNA having a gene encoding a fusion protein containing GAL4-DNA-binding domain and ERR full-length and a vector DNA wherein luciferase gene is fused at the downstream of GAL4-binding sequence were cotransfected by a lipofection method, and the cells were cultured at 37° C. in the presence of 5% CO2 for 1 day. The cells were recovered, sown in a 384 well plate by 15,000 cells, and cultured at 37° C. in the presence of 5% CO2 for 3 hr. Furthermore, 50 μM XCT-790 (final concentration 10 μM) or 15 μM compound (final concentration 3 μM) was added, and the cells were cultured at 37° C. in the presence of 5% CO2 for 1 day. The luciferase activity was measured by using a multiplate reader Envision (Perkin Elmer Inc.). The inverse agonist activity of the compound was calculated in percentage with the luciferase activity inhibited by no addition of compound as 0%, and with addition of final concentration 10 μM of XCT-790 (N-[5-(trifluoromethyl)-1,3,4-thiadiazol-2-yl]-2-cyano-3-[3-methoxy-4-[2,4-di(trifluoromethyl)benzyloxy]phenyl]propenamide) as 100%.
A general note: In a reporter assay the amount or activity of a reporter protein is the signal.

Experiment [2] deals with T2, GST-ERRα ligand-binding domain (Homo sapiens, UniProt P11474).
T2 sequence (P11474 193-421 limits assumed): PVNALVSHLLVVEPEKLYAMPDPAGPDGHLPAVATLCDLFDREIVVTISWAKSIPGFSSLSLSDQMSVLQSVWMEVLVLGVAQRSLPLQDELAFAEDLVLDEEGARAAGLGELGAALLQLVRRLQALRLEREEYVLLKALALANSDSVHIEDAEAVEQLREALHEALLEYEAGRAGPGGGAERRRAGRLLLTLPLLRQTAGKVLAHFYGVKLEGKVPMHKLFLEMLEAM
As to the kind of experiment: HTRF assay system using ERRα ligand-binding domain (biotinylated SRC-1 (676-700) peptide). It counts as biochemical. The following applies: compound final concentration 3 μM, room temperature 2 hr; 615/665 ratio value; no compound = 0%, 10 μM XCT-790 = 100%; read-out: inhibition rate (%) at 3 μM. The protocol: Compound Evaluation in HTRF Assay System Using ERRα Ligand-Binding Domain
An assay buffer (25 mM HEPES, 100 mM NaCl, 1 mM DTT, 0.1% BSA) containing 5 nM GST-ERRα ligand-binding domain (final concentration 1.25 nM) was added to a 384 well plate, then […] XCT-790 (final concentration 10 μM), or 12 μM compound (final concentration 3 μM) was added. Furthermore, an assay buffer containing XL665 conjugated Streptavidine, Eu^3+criptate conjugated GST antibody and 200 nM biotinylated SRC-1 (676-700) (final concentration 100 nM) was added, and the mixture was reacted at room temperature for 2 hr. Using Multiplate reader Envision (Perkin Elmer Inc.), after excitation at 320 nm, fluorescence values at 615 nm and 665 nm were measured. The inverse agonist activity of the compound was calculated in percentage with the 615/665 ratio value inhibited by no addition of compound as 0%, and with addition of final concentration 10 μM of XCT-790 (N-[5-(trifluoromethyl)-1,3,4-thiadiazol-2-yl]-2-cyano-3-[3-methoxy-4-[2,4-di(trifluoromethyl)benzyloxy]phenyl]propenamide) as 100%.

Experiment [3] relates to ES-2 ovarian cancer cells. Put plainly: Cell proliferation inhibitory test (CCK-8). Type of experiment: cell-based. The following applies: compound final concentration 10 μM, 72 hr; CCK-8 absorbance at 450 nm; DMSO alone = 0%, cell-free well with medium only = 100%; read-out: inhibition rate (%) at 10 μM. The protocol:
Cell Proliferation Inhibitory Test
ES-2 ovarian cancer cells were seeded in a 96 well plate at 1×10^3 cells/well, and incubated at 37° C. in the presence of 5% CO2 for 24 hr. Then, the compound was added at a final concentration of 10 μM, and the cells were cultured at 37° C. in the presence of 5% CO2 for 72 hr. For activity measurement of viable cells, a CCK-8 reagent (Cell Counting Kit-8, DOJINDO) was added, the cells were incubated at 37° C. for 1.5 hr, and the absorbance at 450 nm was measured by a microplate reader. Assuming the dehydrogenase activity in the DMSO alone addition group as 0%, and that in a cell-free well containing only a medium as 100%, the dehydrogenase activity of the compound addition group was calculated in percentage.

SMILES strings stand for the structures.

Take `CCN1C(=N)/C(=C/c2ccc(Oc3ccc(C#N)cc3C(F)(F)F)c(OC)c2)NC1=O` [Example 25, 4-{4-[(Z)-(1-ethyl-5-imino-2-oxoimidazolidin-4-ylidene)methyl]-2-methoxyphenoxy}-3-(trifluoromethyl)benzonitrile]: the inhibition at 3 µM was 89% in experiment [1] and 98% in experiment [2]. In addition, in experiment [3], the inhibition at 10 µM was 61%.
In the same order, the values of `CCN1C(=N)/C(=C/c2ccc(OCc3ccc(C(F)(F)F)cc3C(F)(F)F)c(OC)c2)N(C)C1=O` [Example 32, (4Z)-4-[(4-{[2,4-bis(trifluoromethyl)benzyl]oxy}-3-methoxyphenyl)methylidene]-1-ethyl-5-imino-3-methylimidazolidin-2-one] are 91%, 103% and 98%.
In the case of `COc1cc(/C=C2\SC(=O)N=C2NCCC2CCCN2C)ccc1Oc1ccc(C#N)cc1C(F)(F)F` (stereo not drawn) [Example 93, 4-(2-methoxy-4-{(Z)-[4-{[2-(1-methylpyrrolidin-2-yl)ethyl]amino}-2-oxo-1,3-thiazol-5(2H)-ylidene]methyl}phenoxy)-3-(trifluoromethyl)benzonitrile], the inhibition at 3 µM was found to be 88% in experiment [1] and 105% in experiment [2]. Also, the inhibition at 10 µM in experiment [3] stood at 101%.
For `CCN(CC)CCNC1=NC(=O)S/C1=C\c1ccc(Oc2ccc(C(F)(F)F)cc2Cl)c(OC)c1` [Example 94, (5Z)-5-({4-[2-chloro-4-(trifluoromethyl)phenoxy]-3-methoxyphenyl}methylidene)-4-{[2-(diethylamino)ethyl]amino}-1,3-thiazol-2(5H)-one], the inhibition at 3 µM is 90% in experiment [1] and 107% in experiment [2]. For the same compound, the inhibition at 10 µM in experiment [3] is 100%.
In the same order, the values of `COc1cc(/C=C2\SC(=O)N=C2NCCC2CCCN2C)ccc1Oc1ccc(C#N)c2ccccc12` (stereo not drawn) [Example 96, 4-(2-methoxy-4-{(Z)-[4-{[2-(1-methylpyrrolidin-2-yl)ethyl]amino}-2-oxo-1,3-thiazol-5(2H)-ylidene]methyl}phenoxy)naphthalene-1-carbonitrile] are 87%, 114% and 102%.
In the same order, the values of `COc1cc(/C=C2\SC(=O)N=C2NCC(C)(C)O)ccc1Oc1ccc(C#N)cc1C(F)(F)F` [Example 116, 4-{4-[(Z)-{4-[(2-hydroxy-2-methylpropyl)amino]-2-oxo-1,3-thiazol-5(2H)-ylidene}methyl]-2-methoxyphenoxy}-3-(trifluoromethyl)benzonitrile] are 93%, 105% and 101%.
The like results for `CCN1C(=N)/C(=C\c2ccc(Oc3ccc(C#N)cc3C(F)(F)F)c(OC)c2)N(C)C1=O` [Example 143, 4-{4-[(E)-(1-ethyl-5-imino-3-methyl-2-oxoimidazolidin-4-ylidene)methyl]-2-methoxyphenoxy}-3-(trifluoromethyl)benzonitrile] were, in that order, 94%, 92% and 88%.
On to `CCN1C(=N)/C(=C/c2ccc(Oc3ccc(C#N)cc3C(F)(F)F)c(OC)c2)N(C)C1=O` [Example 145, 4-{4-[(Z)-(1-ethyl-5-imino-3-methyl-2-oxoimidazolidin-4-ylidene)methyl]-2-methoxyphenoxy}-3-(trifluoromethyl)benzonitrile], for which the inhibition at 3 µM in experiment [1] is 95%; in experiment [2] it was 93%. The inhibition at 10 µM in experiment [3] worked out at 98%.

What is called inhibition is the drop in the measured response relative to a control, in per cent.
